We go through 18 compounds from patent publication US8969360B2, “Compounds useful as inhibitors of ATR kinase” (Vertex Pharmaceuticals Incorporated, priority 2013, dated 2015).

Test [1] has as its system HCT116 colorectal cancer cells. In words: Cisplatin Sensitization Assay (96 h cell viability MTS). In kind it is cell-based. The note with it: concentration of compound required to reduce the IC50 of Cisplatin alone by at least 3-fold; HCT116, 96 h MTS. On the procedure: Compounds can be screened for their ability to sensitize HCT116 colorectal cancer cells to Cisplatin using a 96 h cell viability (MTS) assay. […] Compounds and Cisplatin are then both added simultaneously to the cell media in 2-fold serial dilutions from a top final concentration of 10 μM as a full matrix of concentrations in a final cell volume of 200 μl, and the cells are then incubated at 37° C. in 5% CO2. After 96 h, 40 μl of MTS reagent (Promega G358a) is added to each well and the cells are incubated for 1 h at 37° C. in 5% CO2. Finally, absorbance is measured at 490 nm using a SpectraMax Plus 384 reader (Molecular Devices) and the concentration of compound required to reduce the IC50 of Cisplatin alone by at least 3-fold (to 1 decimal place) can be reported.
Compounds with a Cisplatin sensitization value of <0.02 μM are marked with “+++.” Compounds with a Cisplatin sensitization value>0.02 μM but <0.2 μM are marked with “++.” Compounds with a Cisplatin sensitization value >0.2 μM but <5 μM are marked with “+.”

In a further test the target is T1, ATR kinase (Homo sapiens, UniProt Q13535).
T1 construct: Assays were carried out at 25° C. in the presence of 5 nM full-length ATR
T1 sequence (Q13535 whole entry): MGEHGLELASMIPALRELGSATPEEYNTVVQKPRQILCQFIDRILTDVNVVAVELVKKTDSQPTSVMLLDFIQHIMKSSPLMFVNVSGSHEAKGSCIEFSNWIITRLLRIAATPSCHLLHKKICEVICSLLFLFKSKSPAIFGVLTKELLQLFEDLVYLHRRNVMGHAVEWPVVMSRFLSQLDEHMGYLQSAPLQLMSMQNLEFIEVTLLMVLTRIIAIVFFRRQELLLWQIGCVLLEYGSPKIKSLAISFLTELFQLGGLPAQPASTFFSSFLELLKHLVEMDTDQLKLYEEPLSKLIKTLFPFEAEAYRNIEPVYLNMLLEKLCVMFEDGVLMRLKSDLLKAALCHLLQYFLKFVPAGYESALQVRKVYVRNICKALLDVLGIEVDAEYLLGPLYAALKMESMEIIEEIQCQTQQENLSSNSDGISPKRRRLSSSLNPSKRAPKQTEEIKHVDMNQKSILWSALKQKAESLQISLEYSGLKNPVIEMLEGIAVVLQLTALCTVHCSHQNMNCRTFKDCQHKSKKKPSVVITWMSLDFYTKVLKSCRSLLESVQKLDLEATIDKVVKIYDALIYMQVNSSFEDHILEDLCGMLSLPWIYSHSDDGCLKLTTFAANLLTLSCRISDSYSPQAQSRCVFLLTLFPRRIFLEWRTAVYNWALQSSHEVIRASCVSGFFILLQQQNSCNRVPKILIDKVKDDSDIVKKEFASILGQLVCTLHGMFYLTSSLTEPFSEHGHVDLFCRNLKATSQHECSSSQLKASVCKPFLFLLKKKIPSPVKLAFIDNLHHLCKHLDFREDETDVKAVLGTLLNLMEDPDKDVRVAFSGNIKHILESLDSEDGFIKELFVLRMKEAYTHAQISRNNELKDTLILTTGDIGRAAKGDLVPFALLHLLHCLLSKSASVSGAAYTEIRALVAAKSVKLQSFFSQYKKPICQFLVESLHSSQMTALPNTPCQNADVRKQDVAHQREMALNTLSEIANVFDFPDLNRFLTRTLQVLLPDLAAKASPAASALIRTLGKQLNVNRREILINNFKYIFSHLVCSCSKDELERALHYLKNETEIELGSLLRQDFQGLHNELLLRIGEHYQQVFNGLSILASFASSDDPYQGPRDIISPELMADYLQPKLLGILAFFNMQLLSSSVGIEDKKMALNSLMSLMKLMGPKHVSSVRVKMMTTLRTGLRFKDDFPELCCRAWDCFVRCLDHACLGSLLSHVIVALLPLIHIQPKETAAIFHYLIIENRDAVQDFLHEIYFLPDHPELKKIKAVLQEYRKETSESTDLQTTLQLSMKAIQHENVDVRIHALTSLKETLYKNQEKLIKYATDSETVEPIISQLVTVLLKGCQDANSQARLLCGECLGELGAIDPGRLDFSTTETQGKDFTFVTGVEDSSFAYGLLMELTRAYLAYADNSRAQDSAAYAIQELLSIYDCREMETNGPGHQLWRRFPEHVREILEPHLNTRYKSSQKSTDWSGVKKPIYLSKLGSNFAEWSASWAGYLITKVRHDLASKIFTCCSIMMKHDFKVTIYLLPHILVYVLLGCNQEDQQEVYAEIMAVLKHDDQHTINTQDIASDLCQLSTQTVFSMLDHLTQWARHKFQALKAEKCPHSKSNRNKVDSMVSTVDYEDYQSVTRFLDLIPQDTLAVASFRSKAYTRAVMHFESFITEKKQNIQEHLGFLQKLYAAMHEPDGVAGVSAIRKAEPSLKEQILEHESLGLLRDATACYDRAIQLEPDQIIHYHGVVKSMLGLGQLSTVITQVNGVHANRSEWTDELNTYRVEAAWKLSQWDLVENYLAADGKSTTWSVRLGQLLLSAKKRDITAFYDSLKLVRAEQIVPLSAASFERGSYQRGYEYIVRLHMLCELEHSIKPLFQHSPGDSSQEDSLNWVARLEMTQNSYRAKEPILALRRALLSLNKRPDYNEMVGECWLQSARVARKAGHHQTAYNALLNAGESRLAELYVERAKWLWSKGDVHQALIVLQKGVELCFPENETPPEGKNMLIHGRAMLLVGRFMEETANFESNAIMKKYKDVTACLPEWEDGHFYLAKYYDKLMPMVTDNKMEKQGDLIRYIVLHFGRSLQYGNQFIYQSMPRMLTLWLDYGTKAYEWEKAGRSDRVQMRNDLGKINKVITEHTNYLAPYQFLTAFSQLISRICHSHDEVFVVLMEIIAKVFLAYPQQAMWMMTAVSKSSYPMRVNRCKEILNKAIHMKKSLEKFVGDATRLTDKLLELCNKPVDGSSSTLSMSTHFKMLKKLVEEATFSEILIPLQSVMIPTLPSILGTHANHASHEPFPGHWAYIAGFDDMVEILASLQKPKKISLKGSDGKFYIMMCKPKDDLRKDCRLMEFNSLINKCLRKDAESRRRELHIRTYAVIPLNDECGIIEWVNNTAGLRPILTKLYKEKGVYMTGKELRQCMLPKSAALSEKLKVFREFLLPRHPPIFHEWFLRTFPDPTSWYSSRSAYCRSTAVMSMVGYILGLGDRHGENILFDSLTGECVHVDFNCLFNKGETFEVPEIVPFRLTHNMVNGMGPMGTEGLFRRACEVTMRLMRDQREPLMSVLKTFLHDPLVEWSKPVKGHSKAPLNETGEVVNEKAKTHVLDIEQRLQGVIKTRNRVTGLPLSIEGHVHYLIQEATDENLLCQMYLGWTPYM
In words: ATR Inhibition Assay (radioactive-phosphate incorporation). The test is classed as biochemical. The note with it: Ki(app); 5 nM full-length ATR, 10 μM ATP, 800 μM target peptide, 25° C. On the procedure:
Compounds were screened for their ability to inhibit ATR kinase using a radioactive-phosphate incorporation assay. Assays were carried out in a mixture of 50 mM Tris/HCl (pH 7.5), 10 mM MgCl2 and 1 mM DTT. Final substrate concentrations were 10 μM [γ-33P]ATP (3 mCi 33P ATP/mmol ATP, Perkin Elmer) and 800 μM target peptide (ASELPASQPQPFSAKKK (SEQ. ID NO: 1)).
Assays were carried out at 25° C. in the presence of 5 nM full-length ATR. An assay stock buffer solution was prepared containing all of the reagents listed above, with the exception of ATP and the test compound of interest. 13.5 μL of the stock solution was placed in a 96 well plate followed by addition of 2 μL of DMSO stock containing serial dilutions of the test compound (typically starting from a final concentration of 15 μM with 3-fold serial dilutions) in duplicate (final DMSO concentration 7%). The plate was pre-incubated for 10 minutes at 25° C. and the reaction initiated by addition of 15 μL [γ-33P]ATP (final concentration 10 μM).
The reaction was stopped after […] by the addition of 30 μL, 0.1M phosphoric acid containing 2 mM ATP. A multiscreen phosphocellulose filter 96-well plate (Millipore, Cat no. MAPHN0B50) was pretreated with 100 μL 0.2M phosphoric acid prior to the addition of 45 μL of the stopped assay mixture. The plate was washed with 5×200 μL 0.2M phosphoric acid. After drying, 100 μL Optiphase ‘SuperMix’ liquid scintillation cocktail (Perkin Elmer) was added to the well prior to scintillation counting (1450 Microbeta Liquid Scintillation Counter, Wallac).
After removing mean background values for all of the data points, Ki(app) data were calculated from non-linear regression analysis of the initial rate data using the Prism software package (GraphPad Prism version 3.0cx for Macintosh, GraphPad Software, San Diego Calif., USA).
Compounds with a Ki value of <0.01 μM are marked with “+++.” Compounds with a Ki value >0.01 μM but <1 μM are marked with “++.” Compounds with a Ki value >1 μM but <5 μM are marked with “+.”

Bounds are passed on as bounds.

As for `Nc1nn2ccc(C(F)(F)F)nc2c1C(=O)Nc1cnccc1OC1CCCOC1` (stereo not drawn) [I-O-12, 2-amino-N-(4-((tetrahydro-2H-pyran-3-yl)oxy)pyridin-3-yl)-5-(trifluoromethyl)pyrazolo[1,5-a]pyrimidine-3-carboxamide], the “Synergy with Cisplatin” value in test [1] is “+++ (Compounds with a Cisplatin sensitization value of <0.02 μM are marked with “+++.”)”. Besides, the Ki at ATR kinase fell in the range of 10 to 1000 nM.
`Nc1nn2ccc(C(F)(F)F)nc2c1C(=O)Nc1cnccc1OCCO` [I-O-13, 2-amino-N-(4-(2-hydroxyethoxy)pyridin-3-yl)-5-(trifluoromethyl)pyrazolo[1,5-a]pyrimidine-3-carboxamide]: the “Synergy with Cisplatin” value in test [1] is “+++ (Compounds with a Cisplatin sensitization value of <0.02 μM are marked with “+++.”)”. Moreover, the Ki at ATR kinase is less than 10 nM.
The corresponding values for `Nc1nn2ccc(C(F)(F)F)nc2c1C(=O)Nc1cnccc1OCCCO` [I-O-14, 2-amino-N-(4-(3-hydroxypropoxy)pyridin-3-yl)-5-(trifluoromethyl)pyrazolo[1,5-a]pyrimidine-3-carboxamide] are “+++ (Compounds with a Cisplatin sensitization value of <0.02 μM are marked with “+++.”)” and less than 10 nM.
On the same counts, the results for `Nc1nn2ccc(C(F)(F)F)nc2c1C(=O)Nc1cnccc1Oc1cccnc1` [I-O-15, 2-amino-N-(4-(pyridin-3-yloxy)pyridin-3-yl)-5-(trifluoromethyl)pyrazolo[1,5-a]pyrimidine-3-carboxamide] are “+++ (Compounds with a Cisplatin sensitization value of <0.02 μM are marked with “+++.”)” and less than 10 nM.
The corresponding values for `Nc1nn2ccc(C(F)(F)F)nc2c1C(=O)Nc1cnccc1Oc1ccncc1` [I-O-16, 2-amino-N-(4-(pyridin-4-yloxy)pyridin-3-yl)-5-(trifluoromethyl)pyrazolo[1,5-a]pyrimidine-3-carboxamide] are “+ (Compounds with a Cisplatin sensitization value >0.2 μM but <5 μM are marked with “+.”)” and 10 to 1000 nM.
On to `CN(C)CCOc1ccncc1NC(=O)c1c(N)nn2ccc(C(F)(F)F)nc12` [I-O-17, 2-amino-N-(4-(2-(dimethylamino)ethoxy)pyridin-3-yl)-5-(trifluoromethyl)pyrazolo[1,5-a]pyrimidine-3-carboxamide], for which the “Synergy with Cisplatin” value in test [1] is on record as “++ (Compounds with a Cisplatin sensitization value>0.02 μM but <0.2 μM are marked with “++.”)”. On ATR kinase, the Ki is 10 to 1000 nM.
On the same counts, the results for `Nc1nn2ccc(C(F)(F)F)nc2c1C(=O)Nc1cnccc1OC1CNC1` [I-O-18, 2-amino-N-(4-(azetidin-3-yloxy)pyridin-3-yl)-5-(trifluoromethyl)pyrazolo[1,5-a]pyrimidine-3-carboxamide] are “++ (Compounds with a Cisplatin sensitization value>0.02 μM but <0.2 μM are marked with “++.”)” and 10 to 1000 nM.
With `CN1CC[C@@H](Oc2ccncc2NC(=O)c2c(N)nn3ccc(C(F)(F)F)nc23)C1` [I-O-19, (R)-2-amino-N-(4-((1-methylpyrrolidin-3-yl)oxy)pyridin-3-yl)-5-(trifluoromethyl)pyrazolo[1,5-a]pyrimidine-3-carboxamide], in test [1], the “Synergy with Cisplatin” value is listed as “++ (Compounds with a Cisplatin sensitization value>0.02 μM but <0.2 μM are marked with “++.”)”. The Ki at ATR kinase lay in the range of 10 to 1000 nM.
The corresponding values for `Nc1nn2ccc(C(F)(F)F)nc2c1C(=O)Nc1cnccc1OCCN1CCOCC1` [I-O-20, 2-amino-N-(4-(2-morpholinoethoxy)pyridin-3-yl)-5-(trifluoromethyl)pyrazolo[1,5-a]pyrimidine-3-carboxamide] are “++ (Compounds with a Cisplatin sensitization value>0.02 μM but <0.2 μM are marked with “++.”)” and 10 to 1000 nM.
The corresponding values for `Nc1nn2ccc(C(F)(F)F)nc2c1C(=O)Nc1cnccc1O[C@H]1CCNC1` [I-O-21, (S)-2-amino-N-(4-(pyrrolidin-3-yloxy)pyridin-3-yl)-5-(trifluoromethyl)pyrazolo[1,5-a]pyrimidine-3-carboxamide] are “++ (Compounds with a Cisplatin sensitization value>0.02 μM but <0.2 μM are marked with “++.”)” and 10 to 1000 nM.
Take `Nc1nn2ccc(C(F)(F)F)nc2c1C(=O)Nc1cnccc1OC1CC2(CCN2)C1` (stereo not drawn) [I-O-22, N-(4-((4s,6r)-1-azaspiro[3.3]heptan-6-yloxy)pyridin-3-yl)-2-amino-5-(trifluoromethyl)pyrazolo[1,5-a]pyrimidine-3-carboxamide]: the “Synergy with Cisplatin” value in test [1] is listed as “++ (Compounds with a Cisplatin sensitization value>0.02 μM but <0.2 μM are marked with “++.”)”. Besides, at ATR kinase, the Ki lay in the range of 10 to 1000 nM.
In the case of `Nc1nn2ccc(C(F)(F)F)nc2c1C(=O)Nc1cnccc1OC1CCCNC1` (stereo not drawn) [I-O-23, 2-amino-N-(4-(piperidin-3-yloxy)pyridin-3-yl)-5-(trifluoromethyl)pyrazolo[1,5-a]pyrimidine-3-carboxamide], in test [1], the “Synergy with Cisplatin” value is on record as “++ (Compounds with a Cisplatin sensitization value>0.02 μM but <0.2 μM are marked with “++.”)”. In addition, the Ki at ATR kinase lay in the range of 10 to 1000 nM.
In the case of `Nc1nn2ccc(C(F)(F)F)nc2c1C(=O)Nc1cnccc1OC1CC2(CCN2)C1` (stereo not drawn) [I-O-24, N-(4-((4r,6s)-1-azaspiro[3.3]heptan-6-yloxy)pyridin-3-yl)-2-amino-5-(trifluoromethyl)pyrazolo[1,5-a]pyrimidine-3-carboxamide], the “Synergy with Cisplatin” value in test [1] is “+++ (Compounds with a Cisplatin sensitization value of <0.02 μM are marked with “+++.”)”. Moreover, the Ki at ATR kinase was in the range of 10 to 1000 nM.
For `Nc1nn2ccc(C(F)(F)F)nc2c1C(=O)Nc1cnccc1O[C@@H]1CCNC1` [I-O-25, (R)-2-amino-N-(4-(pyrrolidin-3-yloxy)pyridin-3-yl)-5-(trifluoromethyl)pyrazolo[1,5-a]pyrimidine-3-carboxamide], the “Synergy with Cisplatin” value in test [1] was “++ (Compounds with a Cisplatin sensitization value>0.02 μM but <0.2 μM are marked with “++.”)”. Moreover, the Ki on ATR kinase was 10 to 1000 nM.
The corresponding values for `CN1CCCC(Oc2ccncc2NC(=O)c2c(N)nn3ccc(C(F)(F)F)nc23)C1` (stereo not drawn) [I-O-26, 2-amino-N-(4-((1-methylpiperidin-3-yl)oxy)pyridin-3-yl)-5-(trifluoromethyl)pyrazolo[1,5-a]pyrimidine-3-carboxamide] are “+++ (Compounds with a Cisplatin sensitization value of <0.02 μM are marked with “+++.”)” and 10 to 1000 nM.
The corresponding values for `CN(C)CCCOc1ccncc1NC(=O)c1c(N)nn2ccc(C(F)(F)F)nc12` [I-O-27, 2-amino-N-(4-(3-(dimethylamino)propoxy)pyridin-3-yl)-5-(trifluoromethyl)pyrazolo[1,5-a]pyrimidine-3-carboxamide] are “++ (Compounds with a Cisplatin sensitization value>0.02 μM but <0.2 μM are marked with “++.”)” and 10 to 1000 nM.
Consider `CN1CCC[C@@H]1COc1ccncc1NC(=O)c1c(N)nn2ccc(C(F)(F)F)nc12` [I-O-28, (R)-2-amino-N-(4-((1-methylpyrrolidin-2-yl)methoxy)pyridin-3-yl)-5-(trifluoromethyl)pyrazolo[1,5-a]pyrimidine-3-carboxamide], for which the “Synergy with Cisplatin” value in test [1] is given as “++ (Compounds with a Cisplatin sensitization value>0.02 μM but <0.2 μM are marked with “++.”)”. For the same compound, the Ki on ATR kinase was 10 to 1000 nM.
On to `CN(C)[C@H]1CC[C@@H](Oc2ccncc2NC(=O)c2c(N)nn3ccc(C(F)(F)F)nc23)CC1` [I-O-30, 2-amino-N-(4-(((1s,4s)-4-(dimethylamino)cyclohexyl)oxy)pyridin-3-yl)-5-(trifluoromethyl)pyrazolo[1,5-a]pyrimidine-3-carboxamide], for which the “Synergy with Cisplatin” value in test [1] was “+++ (Compounds with a Cisplatin sensitization value of <0.02 μM are marked with “+++.”)”. For the same compound, the Ki at ATR kinase is 10 to 1000 nM.
